In brackets after ≈: the same amount, converted by molar mass. Read-outs that look alike come from different tables or passages of the source.
Assays:
[1] = biological target: histone deacetylase (HeLa nuclear extracts); assay: In vitro assay for inhibition of histone deacetylase (Fluor de Lys, HeLa nuclear extracts); format: biochemical; design: key: pIC50 = negative log of IC50; settings: Fluor de Lys substrate
Source text: The HDAC Fluorescent Activity Assay/Drug Discovery Kit of Biomol (cat. No: AK-500-0001) was used. The HDAC Fluorescent Activity Assay is based on the Fluor de Lys (Fluorogenic Histone deAcetylase Lysyl) substrate and developer combination. The Fluor de Lys substrate, comprises an acetylated lysine side chain. Deacetylation of the substrate sensitizes the substrate so that, in the second step, treatment with the Fluor de Lys developer produces a fluorophore.
HeLa nuclear extracts (supplier: Biomol) were incubated at 60 μg/ml with 75 μM of substrate. The Fluor de Lys substrate was added in a buffer containing 25 mM Tris, 137 mM NaCl, 2.7 mM KCl and 1 mM MgCl2.6H2O at pH 7.4. After 30 min, 1 volume of the developer was added. The fluorophore was excited with 355 nm light and the emitted light (450 nm) was be detected on a fluorometric plate reader.
For each experiment, controls (containing HeLa nuclear extract and buffer), a blank incubation (containing buffer but no HeLa nuclear extract) and samples (containing compound dissolved in DMSO and further diluted in buffer and HeLa nuclear extract) were run in parallel. In first instance, compounds were tested at a concentration of 10^−5M. […] All sample were tested 4 times. In each test the blank value was subtracted from both the control and the sample values. The control sample represented 100% of substrate deactylation. For each sample the fluorescence was expressed as a percentage of the mean value of the controls. […] Herein the effects of test compounds are expressed as pIC50 (the negative log value of the IC50-value) (see Table F-2).

[2] = test system: A2780 ovarian carcinoma cells; assay: Antiproliferative activity on A2780 cells (MTT); format: cell-based, human; settings: four days of incubation; for IC50: Homo sapiens, A2780, 96 h, read-out: Cellular activity pIC50 C.2. (converted)
Experimental: All compounds tested were dissolved in DMSO and further dilutions were made in culture medium. Final DMSO concentrations never exceeded 0.1% (v/v) in cell proliferation assays. Controls contained A2780 cells and DMSO without compound and blanks contained DMSO but no cells. MTT was dissolved at 5 mg/ml in PBS. A glycine buffer comprised of 0.1 M glycine and 0.1 M NaCl buffered to pH 10.5 with NaOH (1 N) was prepared (all reagents were from Merck).
The human A2780 ovarian carcinoma cells (a kind gift from Dr. T. C. Hamilton [Fox Chase Cancer Centre, Pa., USA]) were cultured in RPMI 1640 medium supplemented with 2 mM L-glutamine, 50 μg/ml gentamicin and 10% fetal calf serum. Cells were routinely kept as monolayer cultures at 37° C. in a humidified 5% CO2 atmosphere. Cells were passaged once a week using a trypsin/EDTA solution at a split ratio of 1:40. All media and supplements were obtained from Life Technologies. Cells were free of mycoplasma contamination as determined using the Gen-Probe Mycoplasma Tissue Culture kit (supplier: BioMérieux).
Cells were seeded in NUNC™ 96-well culture plates (Supplier: Life Technologies) and allowed to adhere to the plastic overnight. Densities used for plating were 1500 cells per well in a total volume of 200 μl medium. After cell adhesion to the plates, medium was changed and drugs and/or solvents were added to a final volume of 200 μl. Following four days of incubation, medium was replaced by 200 μl fresh medium and cell density and viability was assessed using an MTT-based assay. To each well, 25 μl MTT solution was added and the cells were further incubated for 2 hours at 37° C. The medium was then carefully aspirated and the blue MTT-formazan product was solubilized by addition of 25 μl glycine buffer followed by 100 μl of DMSO. […] Within an experiment, the results for each experimental condition are the mean of 3 replicate wells. For initial screening purposes, compounds were tested at a single fixed concentration of 10^−6 M. For active compounds, the experiments were repeated to establish full concentration-response curves. For each experiment, controls (containing no drug) and a blank incubation (containing no cells or drugs) were run in parallel. The blank value was subtracted from all control and sample values. For each sample, the mean value for cell growth (in absorbance units) was expressed as a percentage of the mean value for cell growth of the control. […] Herein the effects of test compounds are expressed as pIC50 (the negative log value of the IC50-value) (see Table F-2).

[3] = Kinetic solubility in aqueous media C.3.b (BD Gentest Solubility Scanner); format: physicochemical; settings: aqueous buffer
Experimental: DMSO-stock solutions from 5000-9.8 μM (1/2 dilutions) are made in DMSO in a 96 well stock solution plate (200 μl per well). After each dilution the samples are mixed. Aliquots of these DMSO solutions (2 μl) are then transferred into 2 other 96 well buffer plates, containing 200 μl per well aqueous buffer. Each of the buffer plates contains either aqueous buffer pH 7.4 or aqueous buffer pH 4.0. After the last dilution the buffer plates are mixed and the samples are stabilized at room temperature for ½ hour. Dilution is done in duplicate for each compound to exclude occasional errors. Mixtures are then scanned in the BD Gentest Solubility Scanner for the occurrence of precipitation. Based on the absence/presence of precipitate in the mixtures the kinetic solubility is calculated by interpolation. Ranking is performed into the 3 classes. […] (see Table F-2).

[4] = Solubility C.3.c (chemiluminescent nitrogen detector); format: physicochemical; settings: aqueous buffer; pH = 2.3; read-out: Solubility C.3.c. pH = 2.3 mg/ml
Source text: The solubility of a compound, at different pH's, can also be measured with the use of a chemiluminescent nitrogen detector (see Table F-2).

[5] = not given; remark: listed apart in the source
[6] = Kinetic solubility in aqueous media C.3.a (nephelometer); format: physicochemical; settings: aqueous buffer, kinetic from dmso stock; phosphate citrate buffer pH 7.4, turbidity score
Experimental: In the first dilution step, 10 μl of a concentrated stock-solution of the active compound, solubilized in DMSO (5 mM), was added to 100 μl phosphate citrate buffer pH 7.4 and mixed. In the second dilution step, an aliquot (20 μl) of the first dilution step was further dispensed in 100 μl phosphate citrate buffer pH 7.4 and mixed. Finally, in the third dilution step, a sample (20 μl) of the second dilution step was further diluted in 100 μl phosphate citrate buffer pH 7.4 and mixed. All dilutions were performed in 96-well plates. Immediately after the last dilution step the turbidity of the three consecutive dilution steps were measured with a nephelometer. Dilution was done in triplicate for each compound to exclude occasional errors. Based on the turbidity measurements a ranking is performed into 3 classes. Compounds with high solubility obtained a score of 3 and for this compounds the first dilution is clear. Compounds with medium solubility obtained a score of 2. For these compounds the first dilution is unclear and the second dilution is clear.

[7] = test system: p21 promoter reporter A2780 clone tumour; assay: p21 induction in vivo method C.6.c (tumour fluorescence in nude mice); settings: dosed orally or intravenously daily during 6 days, 20-40 mpk
Experimental: Another method tests the capacity of compounds to induce p21 as the consequence of HDAC inhibition at the cellular level. […] The reporter gene is a fluorescent protein and the expression of the reporter gene is measured as the amount of fluorescent light emitted (see example C.6.b.). The last method is an in vivo method wherein mice are used for screening the pharmaceutical activity of a compound. The above described stably transformed tumour cells can be administered to mice in an amount sufficient to effect production of a tumour. After the tumour cells had sufficient time to form a tumour, a potentially active compound can be administered to the animals and the effect of said compound on the tumour cells is evaluated by measuring the expression of the reporter gene. Incubation with pharmaceutical active compounds will result in an increase of reporter gene expression compared to the control levels (see example C.6.c.)
A selected clone was injected subcutaneous (10^7 cells/200 μl) into the flank of nude mice and a calliper measurable tumour was obtained after 12 days. […] Tumours were evaluated for fluorescence by the in-house developed Automated Whole Body Imaging System (Fluorescent stereomicroscope type Olympus® SZX12 equipped with a GFP filter and coupled to a CCD camera type JAI® CV-M90 controlled by a software package based on the IMAQ Vision Software from National Instruments®).

[8] = kinetic from dmso stock, pH = 4, score, read-out: Solubility C.3.b pH = 4.
[9] = pH 7.4, kinetic from dmso stock, pH = 7, score, read-out: Solubility C.3.b. pH = 7

| SMILES | % metabolism (human, 15 min, 5 μM) [%] | Enzymatic activity pIC50 C.1. [1] | IC50 [2] [nM] | solubility at 0.5 h [3, 8] [µM] | solubility at 0.5 h [3, 9] [µM] | solubility [4] [µg/mL] | melting point [5] [°C] | solubility [6] [µM] | tumour fluorescence (p21 reporter) in vivo [7] | Cellular activity pIC50 C.2. [2] | % metabolism (after 15 min of incubation with active microsomes, compound 5 μM) [%] |
| --- | --- | --- | --- | --- | --- | --- | --- | --- | --- | --- | --- |
| COc1cc(N)c(Cl)cc1C(=O)NC1CCN(CCCOc2ccc(F)cc2)CC1OC (stereo not drawn) [Cisapride] | 45 |  |  |  |  |  |  |  |  |  |  |
| O=C(NO)c1cnc(N2CCN(C(CO)c3cccc4ccccc34)CC2)nc1 (stereo not drawn) [Compound 1] |  | 10.0 | 100 | 10 to 50 (≈ 3.93 to 19.7 µg/mL) | 10 to 50 (≈ 3.93 to 19.7 µg/mL) | 2900 (≈ 7.37 mM) | 136 |  |  |  |  |
| O=C(NO)c1cnc(N2CCN(C(CO)c3cc4ccccc4s3)CC2)nc1 (stereo not drawn) [Compound 2] |  | 10.1 | 15.8 | ≤ 10 | 10 to 50 (≈ 3.99 to 20 µg/mL) | 3250 (≈ 8.14 mM) | 165 |  |  |  |  |
| O=C(NO)c1cnc(N2CCN(C(CO)c3cn(S(=O)(=O)c4ccccc4)c4ccccc34)CC2)nc1 (stereo not drawn) [Compound 3] |  | >9 | < 31.6 | 10 to 50 (≈ 5.23 to 26.1 µg/mL) | 10 to 50 (≈ 5.23 to 26.1 µg/mL) |  | 206 |  |  |  |  |
| CCN(CC1CCN(c2ncc(C(=O)NO)cn2)CC1)C(CO)c1cc2ccccc2o1 (stereo not drawn) [Compound 4] |  | 7.9 | 251 | ≤ 10 | 10 to 50 (≈ 4.4 to 22 µg/mL) |  | 90 |  |  |  |  |
| CC(C)(C)c1ccc(C(C(O)CO)N2CCN(c3ncc(C(=O)NO)cn3)CC2)cc1 (stereo not drawn) [Compound 5] |  | 7.5 | 100 |  |  | 1390 (≈ 3.24 mM) | 138 to 154 |  |  |  |  |
| CC(C)(C)c1ccc([C@H]([C@H](O)CO)N2CCN(c3ncc(C(=O)NO)cn3)CC2)cc1 [Compound 6] |  | 7.9 | 39.8 |  |  | 900 (≈ 2.1 mM) | 163 to 171 | > 455 | comparable to R306465 |  |  |
| O=C(NO)c1cnc(N2CCN(C(CO)c3ccc4ccccc4c3)CC2)nc1 (stereo not drawn) [Compound 7] |  | 9.7 | 20 | ≤ 10 | ≤ 10 |  |  |  |  |  |  |
| O=C(NO)c1cnc(N2CCN(C(CO)c3cc4ccccc4o3)CC2)nc1 (stereo not drawn) [Compound 8] |  | 9.0 | 31.6 | 10 to 50 (≈ 3.83 to 19.2 µg/mL) | 10 to 50 (≈ 3.83 to 19.2 µg/mL) | 2200 (≈ 5.74 mM) |  |  |  |  |  |
| O=C(NO)c1cnc(N2CCN(C(CO)c3csc4ccccc34)CC2)nc1 (stereo not drawn) [Compound 9] |  | 9.8 | 50.1 |  |  |  |  |  |  |  |  |
| CC(C)(C)c1ccc(C(C(O)CO)N2CCN(c3ncc(C(=O)NO)cn3)CC2)cc1 (stereo not drawn) [Compound 10] |  | 7.0 |  |  |  |  |  | > 455 |  | 7.1 |  |
| CCCO [propanol] |  |  |  |  |  |  |  |  |  |  | 25 |

— patent US7888360B2, “Pyridine and pyrimidine derivatives as inhibitors of histone deacetylase” (Janssen Pharmaceutica N.V., priority 2006, dated 2011)
